Measurements reported in patent US9493444B2 (Merck Patent GmbH, priority 2012, dated 2016).

test system: Wnt pathway (TCF-dependent transcription in HEK293 luciferase reporter cell line with ER-DSH construct); assay: Cellular assay for Wnt pathway activity (luciferase reporter); format: cell-based; settings: Homo sapiens; Wnt pathway inhibition, HEK293 luciferase reporter cells (ER-DSH, TCF promoter), 24 hours incubation, estrogen-induced
Method: 1. Cellular Assay for Wnt Pathway Activity
Compounds were tested for their Wnt pathway inhibitory activities using a luciferase reporter cell based assay. A HEK293 luciferase reporter cell line was used which contained an Estrogen Receptor-Dishevelled (ER-DSH) construct and a T-Cell Factor (TCF) dependent gene promoter luciferase construct.
Compounds, in concentrations from 30 μM down to 1 nM, were incubated for 24 hours on the cells, which were induced for TCF-dependent transcription by the addition of estrogen (10). Luciferase activities were determined using the ONE GLO Luciferase Assay System (Promega) and the ENVISION microplate reader (Perkin Elmer). For analysis, the obtained data were normalized against the untreated vehicle control and fitted for determination of the IC50 values using the Assay Explorer software (Accelrys).

Structure (SMILES) | IC50
CC(=O)N(C)CCN(C)c1cncc(Oc2ccc(Cl)cc2Cl)n1 [Compound 96, N-(2-{[6-(2,4-Dichloro-phenoxy)-pyrazin-2-yl]-methyl-amino}-ethyl)-N-methyl-acetamide] | 0.2 to 1 µM
CSc1ccc(Oc2cncc(N(C)CCN(C)C(C)=O)n2)cc1 [Compound 65, N-Methyl-N-(2-{methyl-[6-(4-methyl-sulfanyl-phenoxy)-pyrazin-2-yl]-amino}-ethyl)-acetamide] | < 0.2 µM
CCN(CCN(CC)c1cncc(Oc2ccc(F)cc2)n1)C(C)=O [Compound 102, N-Ethyl-N-(2-{ethyl-[6-(4-fluoro-phenoxy)-pyrazin-2-yl]-amino}-ethyl)-acetamide] | 0.2 to 1 µM
CCC1Sc2ccccc2NC1c1ccc(Oc2cncc(N(C)CCN(C)C(C)=O)n2)cc1 (stereo not shown) [Compound 135, N-[2-({6-[4-(2-Ethyl-3,4-dihydro-2H-benzo[1,4]thiazin-3-yl)-phenoxy]-pyrazin-2-yl}-methyl-amino)-ethyl]-N-methyl-acetamide] | 1 to 10 µM
CC(=O)N(C)CCN(C)c1cncc(Oc2ccc(C)nc2)n1 [Compound 246, N-Methyl-N-(2-{methyl-[6-(6-methyl-pyridin-3-yloxy)-pyrazin-2-yl]-amino}-ethyl)-acetamide] | 1 to 10 µM
COc1ccc(Oc2cncc(NCCN(C)C(C)=O)n2)cc1 [Compound 67, N-{2-[6-(4-Methoxy-phenoxy)-pyrazin-2-ylamino]-ethyl}-N-methyl-acetamide] | 1 to 10 µM
CC(=O)N(C)CCN(C)c1cncc(Oc2ccc(-c3ccnc(C#N)c3)cc2)n1 [Compound 201, N-[2-({6-[4-(2-Cyano-pyridin-4-yl)-phenoxy]-pyrazin-2-yl}-methyl-amino)-ethyl]-N-methyl-acetamide] | < 0.2 µM
CC(=O)N(C)CCCc1cncc(Oc2ccc(-c3cnc(N)cn3)cc2F)n1 [Compound 269, N-(3-{6-[4-(5-Amino-pyrazin-2-yl)-2-fluoro-phenoxy]-pyrazin-2-yl}-propyl)-N-methyl-acetamide] | 0.2 to 1 µM
COc1ccc(Oc2cncc(N(C)CCN(C)C(=O)CCC(C)C)n2)cc1 [Compound 64, 4-Methyl-pentanoic acid (2-{[6-(4-methoxy-phenoxy)-pyrazin-2-yl]-methyl-amino}-ethyl)-methyl-amide] | 1 to 10 µM
COc1ccc(Oc2cncc(N(C)CCNC(=O)OC(C)(C)C)n2)cc1 [Compound 54, (2-{[6-(4-Methoxy-phenoxy)-pyrazin-2-yl]-methyl-amino}-ethyl)-carbamic acid tert-butyl ester] | 1 to 10 µM
CC(=O)N(C)CCN(C)c1cncc(Oc2ccc(N3CCN(c4ccncc4)CC3)cc2)n1 [Compound 132, N-Methyl-N-[2-(methyl-{6-[4-(4-pyridin-4-yl-piperazin-1-yl)-phenoxy]-pyrazin-2-yl}-amino)-ethyl]-acetamide] | < 0.2 µM
O=C1OCCN1CCNc1cncc(Oc2ccc(F)cc2)n1 [Compound 277, 3-{2-[6-(4-Fluoro-phenoxy)-pyrazin-2-ylamino]-ethyl}-oxazolidin-2-one] | 1 to 10 µM
CC(=O)N(C)CCN(C)c1cncc(Oc2ccc(C(F)(F)F)cc2)n1 [Compound 121, N-Methyl-N-(2-{methyl-[6-(4-trifluoro-methyl-phenoxy)-pyrazin-2-yl]-amino}-ethyl)-acetamide] | 0.2 to 1 µM
CC(=O)N(C)CCN(C)c1cncc(Oc2ccc(F)cc2)n1 [Compound 4, N-(2-{[6-(4-Fluoro-phenoxy)-pyrazin-2-yl]-methyl-amino}-ethyl)-N-methyl-acetamide] | 0.2 to 1 µM
CCOC(=O)c1ccc(Oc2cncc(N(C)CCN(C)C(C)=O)n2)cc1 [Compound 115, 4-(6-{[2-(Acetyl-methyl-amino)-ethyl]-methyl-amino}-pyrazin-2-yloxy)-benzoic acid ethyl ester] | 0.2 to 1 µM
CC(=O)N(C)CCNc1cncc(Oc2ccc(-c3ccc(CO)cn3)cc2)n1 [Compound 293, N-(2-{6-[4-(5-Hydroxy-methyl-pyridin-2-yl)-phenoxy]-pyrazin-2-ylamino}-ethyl)-N-methyl-acetamide] | 0.2 to 1 µM
